Consider two compounds from patent US4359468A, “Antiallergic N-[4-(indolyl)-piperidino-alkyl]-benzimidazolones” (Boehringer Ingelheim Ltd., priority 1981, dated 1982).

In assay [1] the test system is passive cutaneous anaphylaxis skin reaction in rats (anti-OA reaginic serum, ovalbumin challenge). Kind of assay: Rat Passive Cutaneous Anaphylaxis (PCA) Test. Type of assay: in vivo. Conditions: male CD rats, 50 percent reduction in area, i.v. or oral, route not given. Here is the method:
Rat Passive Cutaneous Anaphylaxis (PCA) Test
The test used was essentially that described by El-Azab, J. and Stewart, P. B., "Pharmacological Profile of a New Anti-Allergic Compound PRD-92-EA." Int. Archs. Allergy Appl. Immunol. 55: 350-361, 1977;
A dilution of anti-OA reaginic serum was used to give reproducible skin reactions with diameters between 10-15 mm in unsensitized rats. This anti-serum dilution was injected in a volume of 0.1 ml intradermally on each side of the shaved backs of male CD rats (150-160 gm) before antigen challenge. Test compounds which were evaluated by the intravenous (i.v.) route were dissolved in water, and mixed with 0.5 ml of a solution containing 5 mg ovalbumin and 2 percent Evans Blue and administered at a volume of 1 ml/kg. […]
Thirty minutes after antigenic challenge, i.e. for either intravenous or oral administration, the rats were killed by CO2 asphyxiation. A midline incision was made along the spine and the skin was reflected and the diameter of the blued areas were measured in millimeters. The mean area in square millimeters was determined for each spot and the mean circular area of that test group was calculated. The mean area in square millimeters of an untreated control group was considered as a 100 percent response, and the results of the test compound groups were expressed as a percent change from the control values. […]

Assay [2] deals with mast cells. Kind of assay: Inhibition of Peritoneal Mast Cell Degranulation (MCD) in Rats Passively Sensitized with OA Antiserum or Induced by Compound 48/80. Type of assay: in vivo, rat. Conditions: male CD rats, OA antiserum or Compound 48/80, i.v., i.p. or p.o., route not given. Here is the method: Inhibition of Peritoneal Mast Cell Degranulation (MCD) in Rats Passively Sensitized with OA Antiserum or Induced by Compound 48/80
This test was adapted from that described by Mota, I. and Osler, A. G. "Mast Cell Degranulation,"
Male CD rats (150-160 gm) were divided into 5 groups as follows:
Group I: Nonspecific MCD control (3 rats)
Group II: Positive MCD control (5 rats)
Groups III, IV, V: Positive MCD following test compound (5 rats each)
Group I was injected intraperitoneally with 3 ml of normal rat serum. Groups II through V were intraperitoneally administered 3 ml of an antiserum predetermined to produce a 60-80 percent greater degranulation than normal rat serum. Eighteen to 24 hours later, test compound was administered (i.e., i.v. immediately, i.p. 5 minutes, or p.o. 20 minutes) before i.p. antigen challenge with 0.5 mg/kg of 2×crystalline ovalbumin in a concentration of 0.005 percent saline. Fifteen minutes after challenge, the rats were killed by asphyxiation with CO2. […]
Microscopic slides of the mesentery were prepared and analyzed by a modification of the method by Fugner, A. "An Improved Method for the Study of Reaginmediated Mast Cell Degranulation in Rats," Experientia, 29: 708, 1973, […]
The results were calculated and expressed as percent of inhibition of degranulation as follows: [formula]

Assay [3] deals with histamine-induced blueing in rat skin. Kind of assay: In Vivo Inhibition of Histamine-Induced Blueing in Rat Skin. Conditions: po, male CD rats, 50 percent reduction in blue-spotted area, p.o., 3 μg histamine intradermal, read-out: ED50 Antihist. Here is the method: In Vivo Inhibition of Histamine-Induced Blueing in Rat Skin
Male CD rats (150-160 gm) were divided into two groups. The hair was removed from an area of the back with an electric clipper. An untreated control group received 10 ml/kg, p.o. of normal saline in 1 percent acacia. Experimental groups received test compound suspended in 1 percent acacia at a volume of 10 ml/kg, p.o. Two percent Evans Blue dye in normal saline in a volume of 0.5 ml was administered intravenously to all animals. Twenty minutes following administration of the test compound or vehicle, 3 μg of histamine diphosphate in 0.1 ml of normal saline was injected intradermally in two sites of the shaved area on the backs of the rats. Fifteen minutes following histamine injection, all rats were killed by CO2 asphyxiation.
An incision was made along the spine and the skin cleanly separated. The dorsal skin was reflected and the diameters of the blue-spotted wheals were measured. The area in square millimeters was determined for each resulting blue spot and the mean area for the control and test groups were calculated. The mean area for the control group was considered as a 100 percent response. Test group results were expressed as a percentage change from control. An ED50 (i.e., defined as a 50 percent reduction in blue-spotted area) was determined by linear regression analysis.

A word on the ED50: it is the dose at which the effect has come halfway, by size or by number of responders.

As to `O=c1[nH]c2ccccc2n1CCCN1CCC(c2c[nH]c3ccccc23)CC1` [Example 4, N-{3-[4-(3-indolyl)-piperidino]-propyl}-benzimidazolone], the ED50 in assay [1] was 1.6 mg/kg; in assay [2] (Rattus norvegicus, Mast cell), 3 to 6.4 mg/kg; in assay [3], 8.7 mg/kg.

`O=c1[nH]c2ccccc2n1CCCN1CCN(C(c2ccccc2)c2ccccc2)CC1` [Oxatomide]: the ED50 worked out at 8.3 mg/kg in assay [1] and 8.1 mg/kg in assay [3]. The “ED50 MCD” value in assay [2] is given as “neg”.
